Results as given in patent publication US20140154702A1, “Methods For Treating Cancer Using Combination Therapies” (ENDOCYTE, INC., priority 2012, published 2014).
Entries after “also recorded” stand apart in the source; their conditions may differ. Like-named read-outs stand apart in the source and are kept apart here.

How the values were obtained:
Type in all cases: cell-based
[1] = system: KB cells; assay: Inhibition of non-FR-specific activity (cytotoxicity) of EC0531 by co-administered inhibitors, KB cells; settings: for IC50: read-out: IC50 of inhibition of non-FR-specific activity of EC0531
Procedure: Extracellular thiol activity was determined using the DTNB method described above. […] Cells were seeded in 24-well tissue culture-treated plates at 1×10^5 cells per well and allowed to attach overnight at 37° C. […] To assess non-FR-targeted activity in FR+cells, 100 μM FA was included as a competitor along with the drug in the treatment solutions. Cells were incubated for 2 hours in the presence of drug, washed 3 times with media, and then chased in 0.5 mL of FDRPMI/HIFBS (FR+cells) or RPMI+FA/HIFBS (FR−cells) to 72 h at 37° C. Spent medium was then aspirated from the wells, and cells were incubated with 1 μCi/mL ^3H-thymidine for 4 hours at 37° C., washed two times with PBS, pH 7.4, then treated with 0.4 mL 5% trichloroacetic acid per well. After 15 minutes, the trichloroacetic acid was aspirated from the wells, and cells were solubilized in 0.5 mL 0.25 N sodium hydroxide. Each sample (450 μL) was transferred to a scintillation vial containing 3 mL of Ecolite+scintillation cocktail and then counted in a liquid scintillation counter (LSC). Final results were expressed as percentage of ^3H-thymidine incorporation relative to an untreated control (non-competed groups) or FA control (competed groups).
The inhibition of non-FR-specific activity (i.e., cytotoxicity) was evaluated for each thiol inhibitor.
Cells were seeded in 24-well tissue culture-treated plates at 1×10^5 cells per well and allowed to attach overnight at 37° C. […] Cells were incubated for 2 hours in the presence of drug, competitor, and inhibitor, washed 3 times with media, and then chased in 0.5 mL of FDRPMI/HIFBS to 72 hours at 37° C. Cells were then treated as described above to determine ^3H-thymidine incorporation. Final results were expressed as percentage of ^3H-thymidine incorporation relative to an untreated control (non-competed groups) or FA control (competed groups).
The inhibition of non-FR-specific activity (i.e., cytotoxicity) was evaluated. KB cells were seeded in 24-well tissue culture-treated plates at 1×10^5 cells per well in FDRPMI/HIFBS and allowed to attach to the plates overnight at 37° C. […] Cells were incubated for 2 hours in the presence of drug, FA competitor, and inhibitor, washed 3 times with media, then chased in 0.5 mL of FDRPMI/HIFBS to 72 hours at 37° C. Cells were then treated as described above to determine ^3H-thymidine incorporation. Final results were expressed as percentage of ^3H-thymidine incorporation relative to an untreated control (non-competed groups) or FA control (competed groups). […]

[2] = system: A549 cells; assay: Extracellular thiol activity (DTNB method), A549 cells; settings: for effect of added thiol on extracellular thiol activity (SH concentration): added to SH-free RPMI: GSSG (1.6 μM), cysteine (189 μM), 2 hours, FIG. 11; for effect on release of extracellular thiols (SH concentration): glutamate (5 mM), quisqualic acid (0.3 mM and 1 mM), 2 hours at 37° C., FIG. 12
[3] = system: A549 cells; assay: 3H-EC0531 uptake study, A549 cells; settings: for effect of inhibitor on nonspecific uptake of 3H-EC0531: 1 μM EC0531 plus inhibitor, 2 hours at 37° C.
Procedure: (§1) To determine non-FR-targeted uptake, 100 μM FA was included in the uptake solutions. Cells were incubated with 0.5 mL of uptake solution for 2 h at 37° C., washed 3 times with ice-cold PBS, and were solubilized in 0.5 mL 1% SDS in PBS, pH 7.4. Cell lysates (450 μL) were added to 3 mL Ecolite+scintillation cocktail and counted in a liquid scintillation counter. Protein concentrations of the remaining lysates were determined using the BCA Protein Assay (Pierce, Rockford, Ill.). Molecules per cell were calculated based on DPM values and previously determined cellular protein conversion factors (2.82×10^−7 and 2.23×10^−7 mg protein per cell for KB and A549, respectively).
(§2) FA at a concentration of 100 μM was used as a competitor to determine non-FR-specific uptake in KB cells. Wells were then washed 3 times with 1 mL of ice-cold PBS, pH 7.4 and were processed for LSC analysis as described above.
(§3) Wells were then washed 3 times with 1 mL of ice-cold PBS, pH 7.4 and were processed for LSC analysis as described above.

[4] = system: KB cells; assay: 3H-EC0531 uptake study, KB cells; settings: for effect of inhibitor on nonspecific uptake of 3H-EC0531: 1 μM EC0531 plus inhibitor, 100 μM FA, 2 hours at 37° C.
Procedure: as §1, §2, §3

[5] = system: KB cells; assay: Inhibition of non-FR-specific activity (cytotoxicity) of EC0531 by co-administered inhibitors, KB cells; settings: KB cells pre-treated with inhibitor prior to EC0531 and folic acid; DTNB (100 μM), NCEM (10 mM); FIG. 6
[6] = system: A549 cells; assay: Inhibition of non-FR-specific activity (cytotoxicity) of EC0531 by co-administered inhibitors, A549 cells; settings: sulfasalazine (1 mM), glutamate (5 mM) with increasing EC0531, 2 hours, chase to 72 hours, FIG. 14
Procedure: Cells were then treated as described above to determine ^3H-thymidine incorporation. The inhibition of non-FR-specific activity (i.e., cytotoxicity) was evaluated for each system xc^− inhibitor.

[7] = DTNB 10 μM and 100 μM, excess folic acid, FIG. 8
[8] = KB cells, co-administered with EC0531 (1 μM) and folic acid (100 μM)
[9] = inhibitor concentration 3 mM, co-administration with EC0531
[10] = inhibitor concentration 100 μM, co-administration with EC0531
[11] = KB cells, co-administered with EC0531 (1 μM) and folic acid (100 μM), 2 hours, 72 hour chase

For `O=C1OC(c2ccc(O)c(S(=O)(=O)O)c2)(c2ccc(O)c(S(=O)(=O)O)c2)c2c(Br)c(Br)c(Br)c(Br)c21` [BSP], the “Inhibition of EC0531 Nonspecific Activity” value [1] was <50% inhibition.

With `N[C@@H](CS)C(=O)O` [Cysteine, cysteine] the “effect of added thiol on extracellular thiol activity (SH concentration)” value [2] was “responsible for stimulation”.

`O=S(=O)(O)c1cc(N=C=S)ccc1C=Cc1ccc(N=C=S)cc1S(=O)(=O)O` [DIDS] was tested, and the “effect of inhibitor on nonspecific uptake of 3H-EC0531” value (from here on “effect of inhibitor … of 3H-EC0531”) [3] was “reduced”, the “effect of inhibitor … of 3H-EC0531” value [4] was “reduced” and the “Inhibition of EC0531 Nonspecific Activity” value [1] was “Full inhibition”.

For `O=C(O)c1cc(SSc2ccc([N+](=O)[O-])c(C(=O)O)c2)ccc1[N+](=O)[O-]` [DTNB, 5,5′-dithiobis(2-nitrobenzoic acid)], the “effect of inhibitor … of 3H-EC0531” value [3] was “reduced”, the “effect of inhibitor on nonspecific uptake of 3H-folic acid” value [3, 7] was “mostly unaffected” and the “inhibition of non-FR-specific activity of EC0531 by pre-treatment of cells” value [5] was “not effective”. For the same molecule, the “effect of inhibitor … of 3H-EC0531” value [4] was “reduced”, the “effect of inhibitor on nonspecific uptake of 3H-folic acid” value [4, 7] was “mostly unaffected” and the “inhibition of non-FR-specific activity of EC0531 (in words)” value [1, 8] was “dose-responsive inhibition”. For the same molecule, the “Inhibition of EC0531 Nonspecific Activity” value ([1]; inhibitor concentration 10 μM, co-administration with EC0531) was “Full inhibition” and the IC50 [1] was 4.6 µM.

For `O=S(=O)([O-])CCSSCCS(=O)(=O)[O-].[Na+].[Na+]` [Dimesna, 2,2′-dithio-bis-ethanesulfonate], the “Inhibition of EC0531 Nonspecific Activity” value [1] was “Full inhibition”.

In the case of `N[C@@H](CCC(=O)N[C@@H](CSCC(=O)Nc1ccc([As](O)O)cc1)C(=O)NCC(=O)O)C(=O)O` [EC1277 (GSAO), 4-(N—(S-glutathionylacetyl)amino) phenylarsonous acid], the “Inhibition of EC0531 Nonspecific Activity” value [1, 9] is reported as “Full inhibition”.

For `O=C(O[C@@H]1Cc2c(O)cc(O)cc2O[C@@H]1c1cc(O)c(O)c(O)c1)c1cc(O)c(O)c(O)c1` [EGCg, epigallocatechin gallate], the “Inhibition of EC0531 Nonspecific Activity” value ([1]; 100 µM) was >50% inhibition.

`O=C(O)CCN1C(=O)C=CC1=O` [NCEM, N-(2-carboxyethyl)maleimide] was tested, and the “effect of inhibitor … of 3H-EC0531” value [3] was “reduced”, the “inhibition of non-FR-specific activity of EC0531 by pre-treatment of cells” value [5] was “not effective” and the “effect of inhibitor … of 3H-EC0531” value [4] was “reduced”. For the same molecule, the “inhibition of non-FR-specific activity of EC0531 (in words)” value [1, 8] was “dose-responsive inhibition”, the “Inhibition of EC0531 Nonspecific Activity” value [1, 10] was “Full inhibition” and the IC50 [1, 11] was 17 µM.

With `N[C@@H](CCC(=O)O)C(=O)O` [glutamate] the “effect on release of extracellular thiols (SH concentration)” value [2] was “significantly reduce” and the “inhibition of non-FR-specific activity of EC0531 (in words)” value [6] was “inhibit”.

In the case of `CN(Cc1cnc2nc(N)nc(N)c2n1)c1ccc(C(=O)N[C@@H](CCC(=O)O)C(=O)O)cc1` [methotrexate], the “effect of inhibitor … of 3H-EC0531” value [3] is reported as “ineffective” and the “effect of inhibitor … of 3H-EC0531” value [4] is reported as “ineffective”.

`O=S(=O)([O-])c1cc[c]([Hg][Cl])cc1` [pCMBS, p-chloromercuribenzene sulfonate] was tested, and the “Inhibition of EC0531 Nonspecific Activity” value [1, 10] was >50% inhibition.

In the case of `N[C@@H](Cn1oc(=O)[nH]c1=O)C(=O)O` [quisqualic acid], the “effect on release of extracellular thiols (SH concentration)” value [2] is reported as “significantly reduce; also recorded: dose-dependent reduction”.

With `O=C(O)c1cc(/N=N/c2ccc(S(=O)(=O)Nc3ccccn3)cc2)ccc1O` [sulfasalazine] the “effect of inhibitor … of 3H-EC0531” value [3] was “reduced”, the “inhibition of non-FR-specific activity of EC0531 (in words)” value [6] was “inhibit; also recorded: greater inhibition” and the “effect of inhibitor … of 3H-EC0531” value [4] was “reduced”. For the same molecule, the “inhibition of non-FR-specific activity of EC0531 (in words)” value [1, 8] was “dose-responsive inhibition” and the IC50 [1, 11] was 170 µM.

In the case of folate-maleimide, the “inhibition of non-FR-specific activity of EC0531 (in words)” value [1, 8] is reported as “dose-responsive inhibition”, the “Inhibition of EC0531 Nonspecific Activity” value [1, 10] is reported as “Full inhibition” and the IC50 [1, 11] is reported as 3.5 µM.

methoxy-PEG5000-vinylsulfone was tested, and the “Inhibition of EC0531 Nonspecific Activity” value [1, 9] was >50% inhibition.

For oxidized glutathione [GSSG], the “effect of added thiol on extracellular thiol activity (SH concentration)” value [2] was “no effect” and the “Inhibition of EC0531 Nonspecific Activity” value [1] was “Full inhibition”.
